In the supplement of paper PMC10883282:

How the values were obtained:
Experiment in all cases: relative viability vs DMSO control (72 h) (fraction); higher = more viable cells
[1] = test system: A204
In short: (§1)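 Percent growth from ATPLite readings, averaged over up to triplicate wells, was used as relative viability. Sarcoma cell lines were seeded into 384-well plates for 80–90% confluence, dosed after 24 h, and kept 72 h at 37 °C, 5% CO2. Data were rescaled to a range where 1 is full and 0 is none.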

[2] = test system: G401
In short: as §1

[3] = test system: SYO-1
In short: as §1

[4] = test system: SW982
In short: as §1

[5] = test system: SW1353
In short: as §1

[6] = test system: HT1080
In short: as §1

[7] = test system: KHOS-NP
In short: as §1

[8] = test system: SW684
In short: as §1

[9] = test system: RD-ES
In short: as §1

[10] = test system: KHOS-240S
In short: as §1

[11] = test system: SK-ES-1
In short: as §1

[12] = test system: SW872
In short: as §1

C=CC(=O)Nc1cc(Nc2nccc(-c3cn(C)c4ccccc34)n2)c(OC)cc1N(C)CCN(C)C [Osimertinib]
Settings	relative viability
[1], 0.00017 µM	1.03
[1], 0.00051 µM	1.04
[1], 0.00152 µM	1.05
[1], 0.00457 µM	1.04
[1], 0.01372 µM	1.01
[1], 0.04115 µM	1.03
[1], 0.1235 µM	1.03
[1], 0.3704 µM	0.9068
[1], 1.111 µM	0.777
[1], 3.333 µM	0.582
[1], 10 µM	0.141
[2], 0.00017 µM	1.01
[2], 0.00051 µM	1.02
[2], 0.00152 µM	1.03
[2], 0.00457 µM	1.03
[2], 0.01372 µM	1.02
[2], 0.04115 µM	0.976
[2], 0.1235 µM	0.962
[2], 0.3704 µM	0.87
[2], 1.111 µM	0.816
[2], 3.333 µM	0.711
[2], 10 µM	0.0893
[3], 0.00017 µM	1.02
[3], 0.00051 µM	0.992
[3], 0.00152 µM	0.969
[3], 0.00457 µM	0.971
[3], 0.01372 µM	0.935
[3], 0.04115 µM	0.9
[3], 0.1235 µM	0.847
[3], 0.3704 µM	0.713
[3], 1.111 µM	0.576
[3], 3.333 µM	0.418
[3], 10 µM	-0.0037
[4], 0.00017 µM	1.02
[4], 0.00051 µM	1.05
[4], 0.00152 µM	1.01
[4], 0.00457 µM	1.03
[4], 0.01372 µM	1.04
[4], 0.04115 µM	1.03
[4], 0.1235 µM	0.996
[4], 0.3704 µM	0.983
[4], 1.111 µM	0.881
[4], 3.333 µM	0.678
[4], 10 µM	0.017
[5], 0.00017 µM	1.014
[5], 0.00051 µM	1.007
[5], 0.00152 µM	1.002
[5], 0.00457 µM	1
[5], 0.01372 µM	0.97
[5], 0.04115 µM	0.96
[5], 0.1235 µM	0.9
[5], 0.3704 µM	0.82
[5], 1.111 µM	0.8
[5], 3.333 µM	0.742
[5], 10 µM	0.0174
[6], 0.00017 µM	1.08
[6], 0.00051 µM	1.09
[6], 0.00152 µM	1.06
[6], 0.00457 µM	1.06
[6], 0.01372 µM	1.04
[6], 0.04115 µM	1.06
[6], 0.1235 µM	1.07
[6], 0.3704 µM	1.03
[6], 1.111 µM	0.992
[6], 3.333 µM	0.935
[6], 10 µM	0.0308
[7], 0.00017 µM	1.1
[7], 0.00051 µM	1.11
[7], 0.00152 µM	1.084
[7], 0.00457 µM	1.08
[7], 0.01372 µM	1.07
[7], 0.04115 µM	1.06
[7], 0.1235 µM	1.06
[7], 0.3704 µM	1.05
[7], 1.111 µM	1.05
[7], 3.333 µM	1.02
[7], 10 µM	0.505
[8], 0.00017 µM	1.11
[8], 0.00051 µM	1.18
[8], 0.00152 µM	1.21
[8], 0.00457 µM	1.2
[8], 0.01372 µM	1.16
[8], 0.04115 µM	1.13
[8], 0.1235 µM	1.13
[8], 0.3704 µM	1.12
[8], 1.111 µM	1.11
[8], 3.333 µM	0.984
[8], 10 µM	0.063
[9], 0.00017 µM	0.962
[9], 0.00051 µM	0.978
[9], 0.00152 µM	0.977
[9], 0.00457 µM	0.971
[9], 0.01372 µM	0.979
[9], 0.04115 µM	0.964
[9], 0.1235 µM	0.947
[9], 0.3704 µM	0.892
[9], 1.111 µM	0.775
[9], 3.333 µM	0.598
[9], 10 µM	0.0212
[10], 0.00017 µM	1.05
[10], 0.00051 µM	1.06
[10], 0.00152 µM	1.06
[10], 0.00457 µM	1.08
[10], 0.01372 µM	1.04
[10], 0.04115 µM	1.05
[10], 0.1235 µM	1.05
[10], 0.3704 µM	1.03
[10], 1.111 µM	0.926
[10], 3.333 µM	0.767
[10], 10 µM	0.167
[11], 0.00017 µM	1
[11], 0.00051 µM	1.05
[11], 0.00152 µM	1.07
[11], 0.00457 µM	1.01
[11], 0.01372 µM	1.02
[11], 0.04115 µM	1.026
[11], 0.1235 µM	1
[11], 0.3704 µM	0.942
[11], 1.111 µM	0.762
[11], 3.333 µM	0.294
[11], 10 µM	0.011
[12], 0.00017 µM	1.078
[12], 0.00051 µM	1.06
[12], 0.00152 µM	1.06
[12], 0.00457 µM	1.08
[12], 0.01372 µM	1.04
[12], 0.04115 µM	1.02
[12], 0.1235 µM	1.03
[12], 0.3704 µM	0.988
[12], 1.111 µM	0.894
[12], 3.333 µM	0.761
[12], 10 µM	0.384
